ChEMBL document CHEMBL1146702, “Synthesis and nicotinic receptor activity of a hydroxylated tropane” (Bioorg Med Chem Lett, 2004)

Assays:
[1] = molecular target: T1, Neuronal acetylcholine receptor; alpha3/beta4 (Homo sapiens, UniProt P30926+P32297); assay: Binding affinity against nicotinic acetylcholine receptor alpha3-beta4 using [3H]epibatidine as radioligand expressed in HEK293 cells or tsA cells; assay type: cell-based
[2] = molecular target: T1, Neuronal acetylcholine receptor; alpha3/beta4; assay: Agonistic potency against nicotinic acetylcholine receptor alpha3-beta4; assay type: functional
[3] = molecular target: Neuronal acetylcholine receptor; alpha2/beta4 (Homo sapiens, UniProt P30926+Q15822); assay: Binding affinity against nicotinic acetylcholine receptor alpha2-beta4 using [3H]epibatidine as radioligand expressed in HEK293 cells or tsA cells; assay type: cell-based
[4] = molecular target: Neuronal acetylcholine receptor; alpha4/beta2 (Homo sapiens, UniProt P17787+P43681); assay: Binding affinity against nicotinic acetylcholine receptor alpha4-beta2 using [3H]epibatidine as radioligand expressed in HEK293 cells or tsA cells; assay type: cell-based
[5] = molecular target: Neuronal acetylcholine receptor; assay: Binding affinity against nicotinic acetylcholine receptor using [3H]epibatidine as radioligand in rat brain tissue; assay type: tissue-based
[6] = molecular target: Neuronal acetylcholine receptor; alpha4/beta4 (Homo sapiens, UniProt P30926+P43681); assay: Binding affinity against nicotinic acetylcholine receptor alpha4-beta4 using [3H]epibatidine as radioligand expressed in HEK293 cells or tsA cells; assay type: cell-based
Sequence of Neuronal acetylcholine receptor; alpha4/beta4 (P30926 whole entry): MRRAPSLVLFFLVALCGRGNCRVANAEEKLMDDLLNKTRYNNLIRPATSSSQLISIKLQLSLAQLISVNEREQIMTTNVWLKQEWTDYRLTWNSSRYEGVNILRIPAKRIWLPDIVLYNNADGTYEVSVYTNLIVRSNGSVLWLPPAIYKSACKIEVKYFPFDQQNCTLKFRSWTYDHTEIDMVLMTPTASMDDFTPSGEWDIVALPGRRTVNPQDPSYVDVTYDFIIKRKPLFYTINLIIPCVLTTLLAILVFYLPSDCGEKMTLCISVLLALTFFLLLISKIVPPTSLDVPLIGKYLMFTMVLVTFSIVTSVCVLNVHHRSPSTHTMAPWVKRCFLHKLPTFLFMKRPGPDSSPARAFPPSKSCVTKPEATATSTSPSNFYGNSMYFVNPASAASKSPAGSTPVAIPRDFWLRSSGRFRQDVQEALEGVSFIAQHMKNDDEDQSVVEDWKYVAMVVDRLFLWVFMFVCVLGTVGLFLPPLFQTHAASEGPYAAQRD
Sequence of Neuronal acetylcholine receptor; alpha4/beta4 (P43681 whole entry): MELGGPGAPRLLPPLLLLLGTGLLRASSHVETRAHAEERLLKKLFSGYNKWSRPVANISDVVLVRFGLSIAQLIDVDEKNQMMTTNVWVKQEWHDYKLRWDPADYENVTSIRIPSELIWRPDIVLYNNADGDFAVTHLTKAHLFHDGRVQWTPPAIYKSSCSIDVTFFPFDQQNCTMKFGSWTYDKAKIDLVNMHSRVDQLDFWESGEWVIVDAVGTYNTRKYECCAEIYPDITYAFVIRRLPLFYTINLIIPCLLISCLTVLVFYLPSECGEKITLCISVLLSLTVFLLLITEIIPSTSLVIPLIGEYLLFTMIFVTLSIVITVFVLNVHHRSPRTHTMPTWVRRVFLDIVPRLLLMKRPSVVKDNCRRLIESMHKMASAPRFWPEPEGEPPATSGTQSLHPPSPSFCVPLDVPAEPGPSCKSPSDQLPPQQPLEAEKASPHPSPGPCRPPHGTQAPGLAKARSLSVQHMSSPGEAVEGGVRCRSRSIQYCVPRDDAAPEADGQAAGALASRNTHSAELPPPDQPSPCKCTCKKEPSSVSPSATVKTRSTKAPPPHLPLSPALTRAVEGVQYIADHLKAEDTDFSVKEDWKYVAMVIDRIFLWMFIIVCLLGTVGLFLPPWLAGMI

Sequence of Neuronal acetylcholine receptor; alpha2/beta4 (P30926 whole entry): as the sequence (P30926 whole entry) above
Sequence of Neuronal acetylcholine receptor; alpha2/beta4 (Q15822 whole entry): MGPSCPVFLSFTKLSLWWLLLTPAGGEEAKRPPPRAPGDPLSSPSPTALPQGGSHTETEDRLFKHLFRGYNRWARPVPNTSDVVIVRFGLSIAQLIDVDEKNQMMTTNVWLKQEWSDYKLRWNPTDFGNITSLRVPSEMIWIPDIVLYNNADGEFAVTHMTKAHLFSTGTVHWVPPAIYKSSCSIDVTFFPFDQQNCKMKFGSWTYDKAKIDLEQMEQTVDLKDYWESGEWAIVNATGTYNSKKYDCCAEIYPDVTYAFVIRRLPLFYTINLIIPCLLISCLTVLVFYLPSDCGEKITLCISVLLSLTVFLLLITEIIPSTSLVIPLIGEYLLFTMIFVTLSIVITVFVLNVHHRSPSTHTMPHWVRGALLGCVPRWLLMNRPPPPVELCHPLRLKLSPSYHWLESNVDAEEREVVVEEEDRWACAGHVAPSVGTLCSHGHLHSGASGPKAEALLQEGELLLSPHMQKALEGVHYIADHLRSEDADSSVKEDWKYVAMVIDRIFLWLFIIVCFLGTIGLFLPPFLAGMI
T1 sequence (P30926 whole entry): as the sequence (P30926 whole entry) above
T1 sequence (P32297 whole entry): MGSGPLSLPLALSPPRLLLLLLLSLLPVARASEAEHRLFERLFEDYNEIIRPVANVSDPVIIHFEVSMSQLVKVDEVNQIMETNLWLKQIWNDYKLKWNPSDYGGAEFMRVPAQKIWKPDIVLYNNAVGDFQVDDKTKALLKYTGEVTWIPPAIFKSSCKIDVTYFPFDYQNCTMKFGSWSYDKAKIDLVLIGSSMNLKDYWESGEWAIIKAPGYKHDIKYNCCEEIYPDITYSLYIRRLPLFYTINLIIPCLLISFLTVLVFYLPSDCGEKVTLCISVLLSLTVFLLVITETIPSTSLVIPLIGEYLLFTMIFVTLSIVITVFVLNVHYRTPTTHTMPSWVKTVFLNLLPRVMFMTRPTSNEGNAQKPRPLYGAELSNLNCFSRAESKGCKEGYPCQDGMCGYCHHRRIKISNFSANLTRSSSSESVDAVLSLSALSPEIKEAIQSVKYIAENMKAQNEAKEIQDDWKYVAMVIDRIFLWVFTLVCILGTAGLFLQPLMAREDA
Sequence of Neuronal acetylcholine receptor; alpha4/beta2 (P17787 whole entry): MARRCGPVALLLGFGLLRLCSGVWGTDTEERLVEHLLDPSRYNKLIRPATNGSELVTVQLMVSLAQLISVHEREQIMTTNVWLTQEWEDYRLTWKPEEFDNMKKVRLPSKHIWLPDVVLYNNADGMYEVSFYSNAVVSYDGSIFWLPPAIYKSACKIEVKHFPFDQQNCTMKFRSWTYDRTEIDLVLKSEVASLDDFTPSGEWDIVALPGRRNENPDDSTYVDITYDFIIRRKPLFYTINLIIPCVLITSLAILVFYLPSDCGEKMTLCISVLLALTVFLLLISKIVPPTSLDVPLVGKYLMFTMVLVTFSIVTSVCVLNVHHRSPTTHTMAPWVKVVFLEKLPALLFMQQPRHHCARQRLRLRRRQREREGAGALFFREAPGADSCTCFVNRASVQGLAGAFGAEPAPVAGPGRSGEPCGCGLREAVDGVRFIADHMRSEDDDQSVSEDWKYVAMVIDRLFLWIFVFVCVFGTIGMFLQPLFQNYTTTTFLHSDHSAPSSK
Sequence of Neuronal acetylcholine receptor; alpha4/beta2 (P43681 whole entry): as the sequence (P43681 whole entry) above

Row | SMILES | Ki [1] [nM] | EC50 [2] [nM] | Ki [3] [nM] | Ki [4] [nM] | Ki [5] [nM] | Ki [6] [nM]
1 | OC1CC2CC(c3ccc(Cl)nc3)C(C1)N2 (stereo not drawn) | 88 | 2100 | 31 | 7.4 | 18 | 38
2 | Clc1ccc(C2CC3CCC2N3)cn1 (stereo not drawn) [EPIBATIDINE] | – | – | 0.091 | – | – | –
3 | CN1CCC[C@H]1c1cccnc1 [NICOTINE] | – | – | 103 | – | – | –
